Patent publication US20030228395A1, “Isotropic transparent structured fluids” (Archer-Daniels Midland Company, priority 2002, published 2003)

Legend:
[1] = From the text: FIG. 6. […] The values assign the maximum amount of vitamin E that can be solubilized as a wt/wt percentage of the total micro-emulsion weight.
The maximum amount of vitamin E solubilized was compared among the different forms of vitamin E along line 6:4 in the five-component system of D-limonene/ethanol (1/1) as the oil phase, TWEEN 60 as surfactant, and water/1,2-propanediol (1/1) as the aqueous phase, in order to obtain insight into the difference in their interfacial behavior (FIG. 6).

[2] = Effect of pH on stability of micro-emulsions; type: physicochemical; conditions: maximum tocopherol acetate, line 6.4 of Example 1, dilutions 50%, 60%, 70%, 80%; buffer pH 3.4, 3.8, 5.4, 7.0, 8.6 replacing water
From the text: A buffer of different pH values (3.4, 3.8, 5.4, 7.0 and 8.6) replaced the water in the aqueous phase.

| solubilization capacity when D-limonene was replaced by triacetin [1] | stability of micro-emulsions at different pH [2] | SMILES | solubilization capacity along the dilution line [1] |
| --- | --- | --- | --- |
| increased along all of the dilution line | – | Cc1c(C)c2c(c(C)c1O)CC[C@@](C)(CCC[C@H](C)CCC[C@H](C)CCCC(C)C)O2 [alpha-tocopherol] | two main dramatic decreases in solubilization, after which a stabilization in solubilization is maintained |
| – | stable for over two months | CC(=O)Oc1c(C)c(C)c2c(c1C)CCC(C)(CCC[C@H](C)CCC[C@H](C)CCCC(C)C)O2 (stereo partly drawn) [Tocopherol Acetate, tocopherol acetate] | – |
